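How tested: cells in 96-well plates exposed to compound for 48 hours at five concentrations. Here, GI50 denotes the concentration required for 50% inhibition of growth.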 Active and inactive are the calls of the source. Rule as the data show it: active = GI50 up to about 1.1 µM and inactive = higher.
Key:
Experiment in all cases: growth of human tumour cells (NCI), 48 h
[1] = test system: 786-0
[2] = test system: A498
[3] = test system: A549
[4] = test system: ACHN
[5] = test system: CCRF-CEM
[6] = test system: COLO 205
[7] = test system: DLD-1
[8] = test system: DMS-114
[9] = test system: DMS-273
[10] = test system: EKVX
[11] = test system: HCC 2998
[12] = test system: HCT-116
[13] = test system: HCT-15
[14] = test system: HL-60
[15] = test system: HOP-18
[16] = test system: HOP-62
[17] = test system: HT-29
[18] = test system: IGROV-1
[19] = test system: K562
[20] = test system: LOX IMVI
[21] = test system: LXFL 529
[22] = test system: M14
[23] = test system: M19-MEL
[24] = test system: MOLT-4
[25] = test system: Malme-3M
[26] = test system: NCI-H226
[27] = test system: NCI-H23
[28] = test system: NCI-H460
[29] = test system: OVCAR-3
[30] = test system: OVCAR-4
[31] = test system: OVCAR-5
[32] = test system: OVCAR-8
[33] = test system: RPMI-8226
[34] = test system: RXF 393
[35] = test system: RXF 631
[36] = test system: SF-268
[37] = test system: SF-295
[38] = test system: SF-539
[39] = test system: SK-MEL-28
[40] = test system: SK-MEL-2
[41] = test system: SK-MEL-5
[42] = test system: SK-OV-3
[43] = test system: SN12C
[44] = test system: SNB-19
[45] = test system: SNB-75
[46] = test system: SNB-78
[47] = test system: SR
[48] = test system: SW-620
[49] = test system: TK-10
[50] = test system: U-251
[51] = test system: UACC-257
[52] = test system: UACC-62
[53] = test system: UO-31

`CC(=O)[O-].Cc1ncc(CO)c(/C=N/NC(N)=S)c1[O-].[Zn+2]` was tested, and the GI50 [1] was > 100 µM (inactive), the GI50 [2] was > 100 µM (inactive) and the GI50 [3] was > 100 µM (inactive). For the same compound, the GI50 [4] was > 100 µM (inactive), the GI50 [5] was > 100 µM (inactive) and the GI50 [6] was > 100 µM (inactive). For the same compound, the GI50 [7] was > 100 µM (inactive), the GI50 [8] was > 100 µM (inactive) and the GI50 [9] was > 100 µM (inactive). For the same compound, the GI50 [10] was > 100 µM (inactive), the GI50 [11] was > 100 µM (inactive) and the GI50 [12] was > 100 µM (inactive). For the same compound, the GI50 [13] was > 100 µM, the GI50 [14] was > 100 µM (inactive) and the GI50 [15] was > 100 µM (inactive). For the same compound, the GI50 [16] was > 100 µM (inactive), the GI50 [17] was > 100 µM (inactive) and the GI50 [18] was > 100 µM (inactive). For the same compound, the GI50 [19] was > 100 µM (inactive), the GI50 [20] was > 100 µM (inactive) and the GI50 [21] was > 100 µM (inactive). The GI50 [22] was > 100 µM (inactive), the GI50 [23] was > 100 µM (inactive) and the GI50 [24] was > 100 µM (inactive). The GI50 [25] was > 100 µM (inactive), the GI50 [26] was > 100 µM (inactive) and the GI50 [27] was > 100 µM (inactive). For the same compound, the GI50 [28] was > 100 µM (inactive), the GI50 [29] was > 100 µM (inactive) and the GI50 [30] was > 100 µM (inactive). For the same compound, the GI50 [31] was > 100 µM (inactive), the GI50 [32] was > 100 µM (inactive) and the GI50 [33] was > 100 µM (inactive). The GI50 [34] was > 100 µM (inactive), the GI50 [35] was > 100 µM (inactive) and the GI50 [36] was > 100 µM (inactive). The GI50 [37] was > 100 µM (inactive), the GI50 [38] was > 100 µM (inactive) and the GI50 [39] was > 100 µM (inactive). For the same compound, the GI50 [40] was > 100 µM (inactive), the GI50 [41] was > 100 µM (inactive) and the GI50 [42] was > 100 µM (inactive). The GI50 [43] was > 100 µM (inactive), the GI50 [44] was > 100 µM (inactive) and the GI50 [45] was > 100 µM (inactive). For the same compound, the GI50 [46] was > 100 µM (inactive), the GI50 [47] was > 100 µM (inactive) and the GI50 [48] was > 100 µM (inactive). The GI50 [49] was > 100 µM (inactive), the GI50 [50] was > 100 µM (inactive) and the GI50 [51] was > 100 µM (inactive). For the same compound, the GI50 [52] was > 100 µM (inactive) and the GI50 [53] was > 100 µM (inactive).

Reference: ChEMBL document CHEMBL1201862, “PubChem BioAssay data set” (2004)
